In brackets after ≈: the same amount, converted by molar mass.
Columns and labels:
[1] = In vitro cytotoxic activity against human lung carcinoma (A549) tumor cell line; type: cell-based
[2] = In vitro cytotoxic activity against human ovarian carcinoma (1A9) tumor cell line
[3] = (§1) In vitro cytotoxic activity against human epidermoid carcinoma of the nasopharynx (KB) tumor cell line
[4] = tested on: KB-V (P-gp-expressing MDR KB subclone); assay: Percentage inhibition of multi drug resistant KB subclone growth expressing P-glycoprotein (KB-V) at 4 ug/mL concentration was determined; details: for inhibition at 4 µg/mL: Homo sapiens, KB-V
[5] = tested on: KB; assay: as §1; type: functional, cell-based

| Structure (SMILES) | IC50 [1] [mg/L] | IC50 [2] [mg/L] | IC50 [3] [mg/L] | inhibition at 4 µg/mL [4] [%] | Inhibition [4] [%] | IC50 [5] [mg/L] |
| --- | --- | --- | --- | --- | --- | --- |
| COc1cc2c(c(OC)c1O)-c1ccc(OC)c(=O)cc1[C@@H](NC(C)=O)CC2 [2-DESMETHYLCOLCHICIN] | 0.1 (≈ 0.259 µM) | 0.1 (≈ 0.259 µM) | 0.1 (≈ 0.259 µM) | 24 |  |  |
| COc1cc2c(c(OC)c1OC(=O)CN(C)C)-c1ccc(SC)c(=O)cc1C(NC(C)=O)CC2.O=C(O)C(O)C(O)C(=O)O (single isomer, unassigned; 5a) | 0.06 | 0.01 | 0.02 |  | 28 |  |
| COc1cc2c(c(OC)c1OC(=O)CN(C)C)-c1ccc(OC)c(=O)cc1[C@@H](NC(C)=O)CC2 | 0.44 (≈ 0.935 µM) | 0.04 (≈ 0.085 µM) |  | 5 |  | 0.09 (≈ 0.191 µM) |
| COc1cc2c(c(OC)c1O)-c1ccc(SC)c(=O)cc1[C@@H](NC(C)=O)CC2 | 0.01 (≈ 0.0249 µM) | 0.01 (≈ 0.0249 µM) | 0.01 (≈ 0.0249 µM) | 56 |  |  |
| COc1cc2c(c(OC)c1OC(=O)CN(C)C)-c1ccc(OC)c(=O)cc1[C@@H](NC(C)=O)CC2.O=C(O)C(O)C(O)C(=O)O | 0.88 | 0.11 | 0.16 |  | 4 |  |
| COc1cc2c(c(OC)c1OC)-c1ccc(=O)c(O)cc1[C@@H](NC(C)=O)CC2 [COLCHICEINE] | 0.002 (≈ 0.00519 µM) | 0.003 (≈ 0.00778 µM) | 0.003 (≈ 0.00778 µM) |  |  |  |
| COc1cc2c(c(OC)c1OC(=O)CN(C)C)-c1ccc(SC)c(=O)cc1C(NC(C)=O)CC2 (single isomer, unassigned; 5) | 0.05 (≈ 0.103 µM) | 0.05 (≈ 0.103 µM) | 0.02 (≈ 0.0411 µM) | 45 |  |  |

— ChEMBL document CHEMBL1145225, “Antitumor agents. Part 236: Synthesis of water-soluble colchicine derivatives” (Bioorg Med Chem Lett, 2005)
